Test systems include UO-31; M14; NCI-H522; NCI-H23; SF-268; OVCAR-4; Hs-578T; KM12; SR; NCI-H460; MDA-MB-231; HCT-15; CAKI-1; HT-29; SK-MEL-2; PC-3; SNB-19; LOX IMVI; Malme-3M; RXF 393.
Holding throughout (test): growth of human tumour cells (NCI), 48 h

Each structure is given as a SMILES string.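 Each compound was tested at five concentrations against cells in 96-well plates for 48 hours. Abbreviation: GI50, concentration required for 50% inhibition of growth.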 Calls of active or inactive are those of the source. No stated cut-off is given here; in the data, active = GI50 up to about 1.1 µM and inactive = higher.

The results in this text go back to ChEMBL document CHEMBL1201862, “PubChem BioAssay data set” (2004).

Regarding `CCOP1(=O)CC(C)=C(Cl)C(O)C1` (stereo not given), the GI50 in the assay on UO-31, in the assay with M14, in the assay with NCI-H522, in the assay with NCI-H23, with SF-268 and with OVCAR-4 was > 100 µM (inactive) throughout. Further, the GI50 in the assay on Hs-578T was > 100 µM (inactive); in the assay with KM12 it was > 100 µM (inactive); with SR, > 100 µM (inactive); in the assay with NCI-H460 it was > 100 µM (inactive); in the assay with MDA-MB-231, > 100 µM (inactive); in the assay on HCT-15, more than 100 µM. For the same molecule, the GI50 in the assay with CAKI-1, in the assay on HT-29, in the assay with SK-MEL-2, in the assay with PC-3, in the assay with SNB-19 and in the assay with LOX IMVI was > 100 µM (inactive) throughout. The GI50 with Malme-3M and in the assay on RXF 393 was > 100 µM (inactive) each time.
Consider `Cc1nc2c(O)c3c(c(O)c2nc1C)C1C=CC3CC1`, for which the GI50 in the assay with UO-31 was 12 µM (inactive); in the assay with M14 it was 15.3 µM (inactive); in the assay with NCI-H522 it was 16 µM (inactive); in the assay on NCI-H23 it was 5.86 µM (inactive); in the assay on SF-268, 10.4 µM (inactive); in the assay with OVCAR-4, 3.06 µM (inactive). Further, the GI50 was 32.1 µM (inactive) in the assay with Hs-578T; 15.7 µM (inactive) in the assay on KM12; 9.59 µM (inactive) in the assay on SR; 30.3 µM (inactive) in the assay with NCI-H460; 3.02 µM (inactive) in the assay with MDA-MB-231; 17.1 µM in the assay with HCT-15. For the same molecule, the GI50 with CAKI-1 is 7.57 µM (inactive); with HT-29 it was 21.4 µM (inactive); in the assay on SK-MEL-2 it was 11.8 µM (inactive); in the assay on PC-3 it was 9.35 µM (inactive); with SNB-19, > 64.1 µM (inactive); in the assay on LOX IMVI it was 3.53 µM (inactive). The GI50 with Malme-3M is 12.7 µM (inactive); with RXF 393 it was 9.23 µM (inactive).
Consider `COc1ccc(NC/C=C/C(=C/COC(C)=O)OC(C)=O)cc1`, for which the GI50 is 12.3 µM (inactive) with UO-31; 1.73 µM (inactive) with M14; 2.72 µM (inactive) in the assay on NCI-H522; 2.06 µM (inactive) in the assay with NCI-H23; 2.52 µM (inactive) in the assay with SF-268; 1.82 µM (inactive) in the assay with OVCAR-4. The GI50 with Hs-578T is 2.12 µM (inactive); in the assay with KM12, 0.448 µM (active); in the assay on SR, 0.514 µM (active); in the assay on NCI-H460 it was 2.08 µM (inactive); with MDA-MB-231 it was 1.78 µM (inactive); with HCT-15, 2.41 µM. Further, the GI50 in the assay on CAKI-1 was 1.89 µM (inactive); in the assay with HT-29, 2.19 µM (inactive); in the assay with SK-MEL-2, 2.28 µM (inactive); with PC-3 it was 2.28 µM (inactive); in the assay with SNB-19, 3.27 µM (inactive); in the assay on LOX IMVI, 2.13 µM (inactive). The results for the GI50 in the assay with Malme-3M and in the assay on RXF 393 were 2.34 µM (inactive) and 1.6 µM (inactive), respectively.
On to `O=C1C(Cl)=C(NCCO)C(=O)c2c(O)ccc(O)c21`, for which the GI50 was 6.7 µM (inactive) in the assay with UO-31; 2.16 µM (inactive) with M14; > 10 µM (inactive) with NCI-H522; 2.6 µM (inactive) with NCI-H23; 3.97 µM (inactive) with SF-268; 0.6 µM (active) in the assay on OVCAR-4. The GI50 in the assay on Hs-578T was 6.56 µM (inactive); in the assay with KM12 it was 2.05 µM (inactive); with SR it was 2.41 µM (inactive); in the assay on NCI-H460, 1.85 µM (inactive); with MDA-MB-231, 1.95 µM (inactive); in the assay with HCT-15, 2.53 µM. Further, the GI50 in the assay with CAKI-1 is > 10 µM (inactive); in the assay on HT-29 it was 2.48 µM (inactive); in the assay on SK-MEL-2 it was 3.02 µM (inactive); with PC-3, 2.78 µM (inactive); with SNB-19, 5.33 µM (inactive); in the assay on LOX IMVI, 1.64 µM (inactive). Moreover, the GI50 in the assay with Malme-3M was 1.4 µM (inactive); with RXF 393 it was 1.96 µM (inactive).
For the molecule `COc1c(-c2nc3ccc(N4CCN(C)CC4)cc3[nH]2)cc(OC)c2[nH]c(CO)nc12`, the GI50 in the assay with UO-31 is > 100 µM (inactive); with M14, > 100 µM (inactive); in the assay on NCI-H522, 65.2 µM (inactive); in the assay on NCI-H23, > 100 µM (inactive); in the assay with SF-268, > 100 µM (inactive); in the assay with OVCAR-4, 72.6 µM (inactive). For the same molecule, the GI50 with Hs-578T is > 100 µM (inactive); with KM12, 49.3 µM (inactive); in the assay on SR it was > 100 µM (inactive); in the assay with NCI-H460 it was 91 µM (inactive); in the assay with MDA-MB-231, 74 µM (inactive); in the assay on HCT-15, more than 100 µM. The GI50 with CAKI-1 was > 100 µM (inactive); in the assay with HT-29, 79.8 µM (inactive); in the assay on SK-MEL-2, > 100 µM (inactive); in the assay on PC-3, > 100 µM (inactive); in the assay on SNB-19, 44.4 µM (inactive); in the assay with LOX IMVI, 88.5 µM (inactive). Besides, the GI50 in the assay with Malme-3M and in the assay with RXF 393 was > 100 µM (inactive) throughout.
As for `N=C(N)SCc1cccc2c(=O)cc(-c3ccccc3)oc12`, the GI50 in the assay on UO-31 is 2.84 µM (inactive); in the assay on M14, 5.28 µM (inactive); with NCI-H522, 3.87 µM (inactive); in the assay on NCI-H23 it was 5.58 µM (inactive); with SF-268, 12.4 µM (inactive); in the assay with OVCAR-4 it was 7.24 µM (inactive). Moreover, the GI50 with Hs-578T is 16.2 µM (inactive); in the assay on KM12 it was 9.29 µM (inactive); in the assay on SR, 4.05 µM (inactive); with NCI-H460, 4.72 µM (inactive); in the assay on MDA-MB-231, 6.41 µM (inactive); in the assay on HCT-15 it was 10.5 µM. Further, the GI50 with CAKI-1 is 3.94 µM (inactive); with HT-29 it was 4.84 µM (inactive); with SK-MEL-2, 5.56 µM (inactive); in the assay on PC-3 it was 4.54 µM (inactive); in the assay on SNB-19, 23.9 µM (inactive); in the assay with LOX IMVI, 12.2 µM (inactive). Besides, the GI50 in the assay on Malme-3M was 10.8 µM (inactive); with RXF 393, 4.79 µM (inactive).
As to `COc1cc(OC)c2c(c1OC)OCC(Cc1ccc(O)cc1)C2=O` (stereo not given), the GI50 in the assay on UO-31, in the assay on M14, in the assay on NCI-H522, in the assay with NCI-H23, in the assay on SF-268 and in the assay with OVCAR-4 was > 25 µM (inactive) in each case. Besides, the GI50 in the assay on Hs-578T is > 25 µM (inactive); in the assay with KM12, > 25 µM (inactive); in the assay with SR, > 25 µM (inactive); in the assay with NCI-H460 it was > 25 µM (inactive); in the assay with MDA-MB-231 it was > 25 µM (inactive); in the assay on HCT-15 it was more than 25 µM. The GI50 with CAKI-1, in the assay on HT-29, in the assay on SK-MEL-2, in the assay on PC-3, in the assay on SNB-19 and in the assay on LOX IMVI was > 25 µM (inactive) each time. The GI50 in the assay on Malme-3M is > 25 µM (inactive); in the assay with RXF 393, 20.3 µM (inactive).
Take `CCOC(=O)Nc1nc2cc(Cn3cccc3)ccc2[nH]1`: the GI50 in the assay with UO-31 is 14.4 µM (inactive); in the assay on M14 it was 1.65 µM (inactive); in the assay with NCI-H522 it was 0.533 µM (active); with NCI-H23, 4.82 µM (inactive); in the assay with SF-268, 8.73 µM (inactive); in the assay with OVCAR-4, 16.2 µM (inactive). The GI50 is 0.857 µM (active) in the assay on Hs-578T; 0.853 µM (active) in the assay on KM12; 0.735 µM (active) in the assay on SR; 0.802 µM (active) with NCI-H460; 1.57 µM (inactive) in the assay with MDA-MB-231; 0.986 µM in the assay with HCT-15. Besides, the GI50 was 0.873 µM (active) with CAKI-1; 0.65 µM (active) in the assay on HT-29; 2.01 µM (inactive) in the assay on SK-MEL-2; 0.399 µM (active) with PC-3; 1.83 µM (inactive) in the assay on SNB-19; 2.55 µM (inactive) in the assay with LOX IMVI. Besides, the GI50 with Malme-3M is 1.09 µM (active); with RXF 393, 4.03 µM (inactive).
As to `O=C(c1ccc(Cl)c(Cl)c1)N(C(=O)N1CCN(c2ccccc2)CC1)S(=O)(=O)c1ccccc1`, the GI50 with UO-31 is 25.1 µM (inactive); with M14, 37.2 µM (inactive); with NCI-H522 it was 19 µM (inactive); with NCI-H23, 37.5 µM (inactive); in the assay on SF-268 it was 38.2 µM (inactive); in the assay on OVCAR-4, 24.2 µM (inactive). Also, the GI50 was 57 µM (inactive) in the assay on Hs-578T; > 100 µM (inactive) with KM12; 20.7 µM (inactive) in the assay on SR; 68.7 µM (inactive) with NCI-H460; 35.6 µM (inactive) with MDA-MB-231; 24.5 µM in the assay with HCT-15. The GI50 in the assay on CAKI-1 is 55.6 µM (inactive); in the assay on HT-29 it was 46.7 µM (inactive); with SK-MEL-2 it was 23.2 µM (inactive); in the assay with PC-3 it was 32 µM (inactive); in the assay with SNB-19, 36.6 µM (inactive); in the assay on LOX IMVI, 19.9 µM (inactive). The GI50 was 60 µM (inactive) in the assay with Malme-3M and > 100 µM (inactive) in the assay with RXF 393.
Regarding `C=C(CN(C)C)C(=O)c1ccccc1`, the GI50 with UO-31 is 6.93 µM (inactive); with M14, 2.31 µM (inactive); in the assay on NCI-H522 it was 1.02 µM (active); with NCI-H23 it was 19.4 µM (inactive); in the assay on SF-268, 24.5 µM (inactive); in the assay with OVCAR-4 it was 11.4 µM (inactive). For the same molecule, the GI50 with Hs-578T was 26.2 µM (inactive); in the assay with KM12, 19.9 µM (inactive); with SR it was 2.09 µM (inactive); in the assay with NCI-H460 it was 18.4 µM (inactive); in the assay on MDA-MB-231, 15.1 µM (inactive); with HCT-15, 10.2 µM. The GI50 in the assay on CAKI-1 is 4.75 µM (inactive); with HT-29, 10.2 µM (inactive); with SK-MEL-2, 15.2 µM (inactive); in the assay with PC-3 it was 16 µM (inactive); in the assay on SNB-19, 30.9 µM (inactive); in the assay with LOX IMVI it was 7.93 µM (inactive). In addition, the GI50 was 2.41 µM (inactive) in the assay on Malme-3M and 2.33 µM (inactive) in the assay with RXF 393.
